# Paper PMC3209502 (European journal of pharmacology, 2011)
# Experiments:
# [1] = test system: Sprague Dawley Rats; assay: Locomotor activity test; format: in vivo, rat; settings: 5 mg/kg i.p., measured 0.5 h from 1 h post injection, vs vehicle
# [2] = test system: male Sprague Dawley rats; assay: Rat forced swimming test; format: in vivo; settings: 15 mg/kg i.p., 30 min pretreatment, vs vehicle
# [3] = test system: C57Bl/6 mice; assay: Mouse tail suspension test; format: in vivo; settings: 15 mg/kg, 30 min before testing, vs vehicle
"locomotor activity (horizontal activity, HACTV) [1]",Structure (SMILES),duration of immobility in the forced swimming test [2],immobility of mice in the tail suspension test [3]
significant rise,"Fc1ccc(C(OCCN2CCN(CCCc3ccccc3)CC2)c2ccc(F)cc2)cc1 [GBR 12909, 1-[2-[bis(4-fluorophenyl)methoxy]ethyl]-4-[3-phenylpropyl]piperazine]",,
,"CN(C)CCCN1c2ccccc2CCc2ccccc21 [imipramine, Imipramine]",produced a reduction in immobility,significantly different compared to vehicle
